The text below walks through data of patent US12599583B2, “Small molecule GRB2 stabilizers for Ras map kinase inhibition” (Board of Regents, The University of Texas System, priority 2019, dated 2026).

T1 sequence (P62993 whole entry): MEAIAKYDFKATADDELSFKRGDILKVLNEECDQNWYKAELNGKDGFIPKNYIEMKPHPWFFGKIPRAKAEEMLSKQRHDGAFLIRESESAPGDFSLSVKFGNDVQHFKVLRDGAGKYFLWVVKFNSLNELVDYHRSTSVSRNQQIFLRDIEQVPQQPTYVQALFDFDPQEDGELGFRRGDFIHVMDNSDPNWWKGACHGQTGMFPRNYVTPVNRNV

For one data set, the target named is T1, GRB2 (Homo sapiens, UniProt P62993). In words: fluorescence anisotropy assay measuring GRB2 dimerization. The data set is classed as biochemical. Particulars: 100 nM Atto488 labeled GRB2; NB = No Binding (inability to induce GRB2 dimerization); read-out: EC50 anisotropy, compound induced GRB2 dimerization. The procedure:
FIGS. 16A & 16B show fluorescence anisotropy assay data measuring GRB2 dimerization. 100 nM Atto488 labeled GRB2, which is below its dimer forming concentration, was used to identify compounds that induce dimerization. […] Note that NB represent compounds inability to induce GRB2 dimerization.
GRB2 dimerization was measured by fluorescence anisotropy assay. 100 nM Atto488 labeled GRB2, which is below its dimer forming concentration, was used to identify compounds that induce dimerization. […] Note that NB represent compounds inability to induce GRB2 dimerization.
Usually EC50 stands for the concentration at which the effect is half-maximal. As for `O=C(Nc1cc(Cl)cc(Cl)c1)Nc1ccc2[nH]c(=O)oc2c1` [GRB101], the EC50 was 13 µM. On to `O=C(Nc1cc(F)cc(F)c1)Nc1ccc2[nH]c(S)nc2c1` [GRB060], for which the EC50 came out at 2.4 µM. As to `COc1cccc(NC(=O)Nc2ccc3c(c2)CC(=O)N3C)c1` [GRB007], the EC50 turned out to be 15.7 µM. As for `COc1ccccc1NC(=O)Nc1ccc2[nH]c(=O)[nH]c2c1` [GRB051], the EC50 was above 100 µM. Turning to `COC(=O)c1cccc(NC(=O)Nc2ccc3[nH]c(=O)[nH]c3c2)c1` [GRB033], the EC50 was above 100 µM.

As for `O=C(Nc1cccc(F)c1)Nc1ccc2[nH]c(SCc3ccc(F)cc3)nc2c1` [GRB075], the EC50 was determined as 23 µM. For `Cc1cc(C)cc(NC(=O)Nc2ccc3[nH]c(SCc4ccc(F)cc4)nc3c2)c1` [GRB067], the 50% effective concentration (EC50) was determined as 48 µM.

For `O=C(Nc1ccccc1)Nc1ccc2[nH]c(SCc3ccc(F)cc3)nc2c1` [GRB065], the EC50 worked out at 350 µM. For `CN1C(=O)Cc2cc(NC(=O)Nc3ccc(F)cc3)ccc21` [GRB006], the EC50 came to 2.7 µM. `O=c1[nH]c2ccc(NC(=S)NCCN3CCOCC3)cc2[nH]1` [GRB050]: the EC50 turned out to be 56 µM. Same read-out and setting: for `CCN1C(=O)Cc2cc(NC(=O)Nc3ccc(Cl)cc3)ccc21` [GRB010] the value was 3.9 µM; for `O=C(Cc1ccc(F)cc1)Nc1ccc2[nH]c(S)nc2c1` [GRB074], 205 µM; for `Cc1ccc(NC(=O)Nc2ccc3[nH]c(=O)[nH]c3c2)c(C)c1` [GRB029], 16.3 µM. Turning to `O=C(Nc1cc(F)cc(F)c1)Nc1ccc2[nH]c(=O)[nH]c2c1` [GRB024], the EC50 stood at 4.6 µM. In the case of `Cc1ccc(NC(=O)Nc2ccc3[nH]c(=O)oc3c2)cc1` [GRB104], the EC50 was 3.1 µM. On to `O=c1[nH]c2ccc(NC(=S)Nc3ccc(Cl)c(Cl)c3)cc2[nH]1` [GRB048], for which the EC50 amounted to 8.3 µM. For `N#Cc1ccc(NC(=O)Nc2ccc3[nH]c(S)nc3c2)cc1` [GRB063], the EC50 was 124 µM.

Take `Cc1cc(Br)ccc1NC(=O)Nc1ccc2[nH]c(=O)[nH]c2c1` [GRB020]: the EC50 worked out at 0.75 µM. With `CCOC(=O)CNC(=O)Nc1ccc2[nH]c(=O)[nH]c2c1` [GRB027], the EC50 worked out at 10.1 µM. With `O=C1Cc2cc(NC(=O)Nc3ccc(F)c(Cl)c3)ccc2N1` [GRB088], the EC50 turned out to be 8.3 µM. Still for that read-out and setting: for `O=C1Cc2cc(NC(=O)Nc3cc(F)cc(F)c3)ccc2N1` [GRB085] the value was 1.1 µM; for `CC(=O)c1cccc(NC(=O)Nc2ccc3[nH]c(SCc4ccc(F)cc4)nc3c2)c1` [GRB073], 15 µM; for `O=C(Nc1ccc2ccccc2c1)Nc1ccc2[nH]c(SCc3ccc(F)cc3)nc2c1` [GRB070], 128 µM.

On to `Cc1ccccc1NC(=O)Nc1ccc2[nH]c(S)nc2c1` [GRB058], for which the EC50 was 2 µM. For `COc1cc(NC(=O)Nc2ccc3[nH]c(=O)[nH]c3c2)cc(OC)c1OC` [GRB032], the EC50 is above 100 µM.

Regarding `O=C(Nc1cccc(F)c1)Nc1ccc2[nH]c(=O)[nH]c2c1` [GRB023], the EC50 was found to be 3.1 µM. Take `O=C(NCc1ccccc1)Nc1ccc2[nH]c(=O)[nH]c2c1` [GRB049]: the EC50 was determined as 11.5 µM. The same measure, in the same setting: the value for `O=C1Cc2cc(NC(=S)Nc3cccc(Cl)c3)ccc2N1` [GRB095] was 50.9 µM. On to `O=C(NCc1ccc(F)cc1)Nc1ccc2[nH]c(SCc3ccc(F)cc3)nc2c1` [GRB066], for which the EC50 was 246 µM. In the case of `Cc1ccc(S(=O)(=O)Nc2ccc3[nH]c(S)nc3c2)cc1` [GRB078], the EC50 was determined as 436 µM.

Regarding `O=C1Cc2cc(NC(=O)Nc3cccs3)ccc2N1` [GRB003], the EC50 stood at 9.7 µM. Consider `N#Cc1cccc(NC(=O)Nc2ccc3[nH]c(=O)[nH]c3c2)c1` [GRB025], for which the EC50 was 6 µM. As to `O=C1Cc2cc(NC(=O)Nc3cccc(Br)c3)ccc2N1` [GRB087], the EC50 was 4.6 µM. For the compound `Cc1ccc(NC(=O)Nc2ccc3[nH]c(=O)[nH]c3c2)c(C)c1` [GRB026], the EC50 was found to be 8.2 µM. As to `O=C(Nc1cc(F)cc(F)c1)Nc1ccc2[nH]c(SCc3ccc(F)cc3)nc2c1` [GRB071], the EC50 is 225 µM.

For the compound `COC(=O)c1cccc(NC(=O)Nc2ccc3c(c2)CC(=O)N3)c1` [GRB094], the EC50 is 23 µM. Same read-out and setting: the value for `O=C1Cc2cc(NC(=O)Nc3cc(Cl)cc(Cl)c3)ccc2N1` [GRB092] was 13.8 µM; that for `O=C(Nc1cc(Cl)cc(Cl)c1)Nc1ccc2[nH]c(=O)[nH]c2c1` [GRB028] was 10.2 µM; that for `CSc1nc2cc(C(=O)Nc3cccc(F)c3)ccc2[nH]1` [GRB077] was 502 µM.

Consider `O=C(Nc1ccc(F)cc1)Nc1ccc2[nH]c(=O)[nH]c2c1` [GRB047], for which the EC50 worked out at 9.7 µM. `Cc1cccc(NC(=O)Nc2ccc3c(c2)CC(=O)N3)c1C` [GRB089]: the EC50 turned out to be 9.1 µM. As for `O=C(Nc1cc(F)cc(F)c1)Nc1ccc2[nH]c(=O)oc2c1` [GRB102], the EC50 was above 100 µM. Same read-out and setting: the value for `O=C(Nc1ccc(F)c(Cl)c1)Nc1ccc2[nH]c(=O)[nH]c2c1` [GRB031] was 40.3 µM. Take `COc1cccc(NC(=O)Nc2ccc3[nH]c(=O)[nH]c3c2)c1` [GRB034]: the EC50 worked out at 264 µM. Still for that read-out and setting: for `COC(=O)c1cccc(NC(=O)c2ccc3[nH]c(S)nc3c2)c1` [GRB076] the value was 62 µM; for `COc1cccc(NC(=O)Nc2ccc3[nH]c(=O)oc3c2)c1` [GRB105], 9.7 µM. As to `COc1cccc(NC(=O)Nc2ccc3[nH]c(S)nc3c2)c1` [GRB061], the EC50 is 129 µM. `Cc1ccc(NC(=O)Nc2ccc3c(c2)CC(=O)N3)c(C)c1` [GRB093]: the EC50 was determined as 15.5 µM.

Take `COc1ccccc1NC(=O)Nc1ccc2c(c1)CC(=O)N2` [GRB012]: the EC50 turned out to be 4.5 µM. `Cc1ccc(NC(=O)Nc2ccc3[nH]c(=O)[nH]c3c2)cc1` [GRB021]: the EC50 came out at 1 µM. As for `O=C(Nc1cccc(C(F)(F)F)c1)Nc1ccc2[nH]c(=O)[nH]c2c1` [GRB046], the EC50 stood at 2 µM. Take `CCN1C(=O)Cc2cc(NC(=O)Nc3ccc(Cl)c(Cl)c3)ccc21` [GRB009]: the concentration giving a half-maximal response (EC50) came out at 5.5 µM. For the compound `O=C1Cc2cc(NC(=O)NC(=O)c3ccccc3)ccc2N1` [GRB091], the EC50 worked out at 13.3 µM. For the compound `Cc1cccc(NC(=O)Nc2ccc3[nH]c(=O)[nH]c3c2)c1C` [GRB030], the EC50 was determined as 37.3 µM. On to `O=C1Cc2cc(NC(=O)Nc3cccc(Cl)c3)ccc2N1` [GRB004], for which the EC50 was determined as 26 µM.

Consider `O=C1Cc2cc(NC(=S)Nc3ccc(Cl)c(Cl)c3)ccc2N1` [GRB086], for which the EC50 was 1.5 µM. Consider `O=C(Nc1ccc(Cl)c(Cl)c1)Nc1ccc2[nH]c(=O)[nH]c2c1` [GRB022], for which the EC50 worked out at 2.1 µM.

With `O=C(Nc1ccccc1)Nc1ccc2[nH]c(S)nc2c1` [GRB064], the EC50 was 116 µM. Turning to `Cc1cc(NC(=O)Nc2ccc3c(c2)CC(=O)N3)ccc1Cl` [GRB090], the EC50 turned out to be 13 µM. Still for that read-out and setting: the value for `Cc1cc(C)cc(NC(=O)Nc2ccc3[nH]c(S)nc3c2)c1` [GRB062] was 78 µM.

Another data set concerns the target T1, GRB2. In words: ITC binding to GRB2. Conditions: read-out: Kd, ITC binding isotherm. An excerpt:
Validation of in vitro binding of GRB001 to GRB2 with ITC as an alternative technique. […] GRB001 is able to bind GRB2 in two different conformations as reflected by the energy signature (inset).
FIGS. 14A-14C show ITC binding isotherm of GRB001 binding to GRB2 as in FIG. 4 (FIG. 14A).
The term Kd denotes the equilibrium constant for the complex coming apart. On to `O=C1Cc2cc(NC(=O)Nc3cc(Cl)cc(Cl)c3)ccc2N1` [GRB092], for which the Kd worked out at 0.527 ± 0.367 µM.

In a further data set the test system is OVCAR5 cells. In words: nuclear fragmentation of OVCAR5 cells, high-throughput assay. The data set is classed as cell-based. Particulars: 500 nM compound. An excerpt: The intensity of the red color represents nuclear condensation indicative of apoptotic cells.
Turning to `O=C1Cc2cc(NC(=O)Nc3ccc(Cl)c(Cl)c3)ccc2N1` [GRB002], the “nuclear fragmentation of OVCAR5 cells” value is “inducing nuclear fragmentation”.

Still in this data set, the particulars now being: OVCAR5 cells.
`O=C1Cc2cc(NC(=O)Nc3ccc4c(c3)OCO4)ccc2N1` [GRB005]: the “quantitation of fragmented nucleus among Series-1 GRB001 analogues” value was “highest level of fragmented nucleus”.

Take `O=C1Cc2cc(NC(=O)Nc3ccc(Cl)c(Cl)c3)ccc2N1` [GRB002]: the “quantitation of fragmented nucleus among Series-1 GRB001 analogues” value is reported as “highest level of fragmented nucleus”.

Tested on in another data set: not listed separately
As to the kind of experiment: Sulforhodamine B (SRB) cytotoxicity in HEK293T cells. Conditions: human. The format is cell-based. The procedure: (§1) Titrating concentrations of each compounds were used to treat cells for 72 hours. The data was normalized against 100% survival at the lowest inhibitor concentration. Graphs for IC50 were fitted to the four-parameter logistic equation using Prism8. Error bars show the percent coefficient of variation. Equivalent concentrations of DMSO were used as a negative control.
(§2) SRB cytotoxicity analysis was also performed using GRB152 in HEK293T and MDA-MB-231 cells. Cells were exposed to various concentrations of compound for 72 h before viability measurements.
For orientation: IC50 means the concentration at which inhibition is half-maximal. Read a low IC50 as greater potency. Take `COc1ccc(Cl)cc1NC(=O)Nc1ccc2[nH]c(=O)oc2c1` [GRB161]: the 50% inhibitory concentration (IC50) at 72 h was above 120 µM.

For `O=c1[nH]c2ccc(NC(=S)Nc3ccc(Cl)c(Cl)c3)cc2o1` [GRB152], the IC50 at 72 h is 1.5 ± 0.5 µM.

Tested on in a further data set: not listed separately
As to the kind of experiment: Sulforhodamine B (SRB) cytotoxicity in MDA-MB-231 cells. The format is cell-based. Particulars: human. As for the experimental part:
as §1, §2
`O=c1[nH]c2ccc(NC(=S)Nc3ccc(Cl)c(Cl)c3)cc2o1` [GRB152] came in with an IC50 at 72 h of 12.1 ± 1.5 µM.
